# Experimental data: patent US10669276B2, “Fused pyrimidine derivatives” (Hoffmann-La Roche Inc., priority 2016, dated 2020)
# Target: γ-secretase (Homo sapiens (Human), UniProt P49768)
# Test: Cellular γ-secretase assay (Aβ42 secretion, AlphaLisa)
# Assay type: cell-based
# Conditions: inhibition of Aβ42 secretion; human neuroglioma H4 cells overexpressing human APP695 Swedish double mutation; 24 hr compound incubation
# Procedure: Human neuroglioma H4 cells overexpressing human APP695 with the Swedish double mutation (K595N/M596L) were plated at 30,000 cells/well/100 μl in 96-well plates in IMDM media containing 10% FCS, 0.2 mg/l Hygromycin B and incubated at 37° C., 5% CO2.
# 3-4 hr post plating, compounds are a diluted in media and 50 μl is added as […] concentrate to achieve the final concentration. Compound incubation is performed for 24 hr. Final doses typically range from 4 μM down to 0.0013 μM in half-log steps resulting in an eight point dose response curve. Appropriate controls using vehicle only and reference compound were applied to this assay. The final concentration of Me2SO was 0.4%.
# After incubation at 37° C., 5% CO2, the supernatant was subjected to quantification of secreted Aβ42 by the means of an AlphaLisa assay kit (Human Amyloid beta 1-42 Kit: Cat # AL203C, Perkin Elmer). 20 μl of the cell culture supernatant was transferred to an assay plate. Then 10 μl of a mixture of the AlphaLisa coupled capture antibody and the biotinylated detection antibody was added and incubated for 3 hours at room temperature while softly shaking the assay plate. After a further addition of 20 μl of the Donor beads the assay plate was incubated for 30 min at room temperature and constant shaking without exposure to direct light. The assay plate was then read on a Paradigm AlphaLisa Reader using the build-in program with excitation at 680 nm and emission at […]. The measured signals were then used to calculate IC50 values for inhibition of Aβ42 secretion by nonlinear regression fit analysis using XLfit 5.3 software (IDBS).
row,Structure (SMILES),EC50 [nM]
1,"CNc1nc(Nc2ccc(-n3cnc(C)n3)c(OC)c2)nc2c1C(C)(C)CN2c1ccc(F)cc1 [Example 1, 7-(4-Fluorophenyl)-N2-(3-methoxy-4-(3-methyl-1H-1,2,4-triazol-1-yl)phenyl)-N4,5,5-trimethyl-6,7-dihydro-5H-pyrrolo[2,3-d]pyrimidine-2,4-diamine]",5
2,"CNc1nc(Nc2ccc(-n3ncnc3C)c(F)c2)nc2c1C(C)(C)CN2c1ccc(F)cc1 [Example 5, N2-(3-Fluoro-4-(5-methyl-1H-1,2,4-triazol-1-yl)phenyl)-7-(4-fluorophenyl)-N4,5,5-trimethyl-6,7-dihydro-5H-pyrrolo[2,3-d]pyrimidine-2,4-diamine]",22
3,"CNc1nc(Nc2cnc(-n3cnc(Cl)c3)c(OC)c2)nc2c1C(C)(C)CN2c1ccc(F)cc1 [Example 6, N2-(6-(4-Chloro-1H-imidazol-1-yl)-5-methoxypyridin-3-yl)-7-(4-fluorophenyl)-N4,5,5-trimethyl-6,7-dihydro-5H-pyrrolo[2,3-d]pyrimidine-2,4-diamine]",9
4,"CNc1nc(Nc2cnc(-n3cnc(C)c3)c(OC)c2)nc2c1C(C)(C)CN2c1ccc(F)cc1 [Example 7, 7-(4-Fluorophenyl)-N2-(5-methoxy-6-(4-methyl-1H-imidazol-1-yl)pyridin-3-yl)-N4,5,5-trimethyl-6,7-dihydro-5H-pyrrolo[2,3-d]pyrimidine-2,4-diamine]",5
5,"CNc1nc(Nc2ccc(-n3cnc(C)n3)c(OC)c2)nc2c1C(C)(C)CN2c1ccc(F)c(F)c1 [Example 8, 7-(3,4-Difluorophenyl)-N2-(3-methoxy-4-(3-methyl-1H-1,2,4-triazol-1-yl)phenyl)-N4,5,5-trimethyl-6,7-dihydro-5H-pyrrolo[2,3-d]pyrimidine-2,4-diamine]",5
6,"CNc1nc(Nc2ccc(-n3cc(C)nc3C)c(F)c2)nc2c1C(C)(C)CN2c1ccc(F)cc1 [Example 11, N2-(4-(2,4-Dimethyl-1H-imidazol-1-yl)-3-fluorophenyl)-7-(4-fluorophenyl)-N4,5,5-trimethyl-6,7-dihydro-5H-pyrrolo[2,3-d]pyrimidine-2,4-diamine]",33
7,"CNc1nc(Nc2ccc(-n3cnc(C)c3)cc2)nc2c1C(C)(C)CN2c1ccc(F)cc1 [Example 12, 7-(4-Fluorophenyl)-N4,5,5-trimethyl-N2-(4-(4-methyl-1H-imidazol-1-yl)phenyl)-6,7-dihydro-5H-pyrrolo[2,3-d]pyrimidine-2,4-diamine]",13
8,"CNc1nc(Nc2ccc(-n3cnc(C)n3)c(OC)c2)nc2c1C(C)(C)CN2C1CC(F)(F)C1 [Example 17, 7-(3,3-Difluorocyclobutyl)-N2-(3-methoxy-4-(3-methyl-1H-1,2,4-triazol-1-yl)phenyl)-N4,5,5-trimethyl-6,7-dihydro-5H-pyrrolo[2,3-d]pyrimidine-2,4-diamine]",19
9,"CNc1nc(Nc2ccc(-n3cnc(C)n3)c(OC)c2)nc2c1C(C)(C)CN2c1ccc(F)cc1F [Example 19, 7-(2,4-Difluorophenyl)-N2-(3-methoxy-4-(3-methyl-1H-1,2,4-triazol-1-yl)phenyl)-N4,5,5-trimethyl-6,7-dihydro-5H-pyrrolo[2,3-d]pyrimidine-2,4-diamine]",8
10,"CNc1nc(Nc2cnc(-n3cnc(C)c3)c(OC)c2)nc2c1C(C)(C)CN2c1ccc(F)cc1F [Example 20, 7-(2,4-Difluorophenyl)-N2-(5-methoxy-6-(4-methyl-1H-imidazol-1-yl)pyridin-3-yl)-N4,5,5-trimethyl-6,7-dihydro-5H-pyrrolo[2,3-d]pyrimidine-2,4-diamine]",8
11,"CNc1nc(Nc2ccc(-n3cnc(C)n3)c(OC)c2)nc2c1C(C)(C)CN2C12CC(C(F)(F)F)(C1)C2 [Example 21, N2-(3-Methoxy-4-(3-methyl-1H-1,2,4-triazol-1-yl)phenyl)-N4,5,5-trimethyl-7-(3-(trifluoromethyl)bicyclo[1.1.1]pentan-1-yl)-6,7-dihydro-5H-pyrrolo[2,3-d]pyrimidine-2,4-diamine]",72
12,"CNc1nc(Nc2cnc(-n3cnc(C)c3)c(OC)c2)nc2c1C(C)(C)CN2C12CC(C(F)(F)F)(C1)C2 [Example 22, N2-(5-Methoxy-6-(4-methyl-1H-imidazol-1-yl)pyridin-3-yl)-N4,5,5-trimethyl-7-(3-(trifluoromethyl)bicyclo[1.1.1]pentan-1-yl)-6,7-dihydro-5H-pyrrolo[2,3-d]pyrimidine-2,4-diamine]",30

# More lines, in order of falling EC50, values ahead:
row,EC50 [nM],Structure (SMILES)
1,51,"CNc1nc(Nc2ccc(-n3cnc(C)n3)cc2)nc2c1C(C)(C)CN2c1ccc(F)cc1 [Example 10, 7-(4-Fluorophenyl)-N4,5,5-trimethyl-N2-(4-(3-methyl-1H-1,2,4-triazol-1-yl)phenyl)-6,7-dihydro-5H-pyrrolo[2,3-d]pyrimidine-2,4-diamine]"
2,30,"CNc1nc(Nc2ccc(-c3cnc(C)o3)c(F)c2)nc2c1C(C)(C)CN2c1ccc(F)cc1 [Example 16, N2-(3-Fluoro-4-(2-methyloxazol-5-yl)phenyl)-7-(4-fluorophenyl)-N4,5,5-trimethyl-6,7-dihydro-5H-pyrrolo[2,3-d]pyrimidine-2,4-diamine]"
3,26,"CNc1nc(Nc2ccc(-n3cnc(C)n3)c(F)c2)nc2c1C(C)(C)CN2c1ccc(F)c(F)c1 [Example 9, 7-(3,4-Difluorophenyl)-N2-(3-fluoro-4-(3-methyl-1H-1,2,4-triazol-1-yl)phenyl)-N4,5,5-trimethyl-6,7-dihydro-5H-pyrrolo[2,3-d]pyrimidine-2,4-diamine]"
4,23,"CNc1nc(Nc2ccc(-n3cnc(C)n3)nc2)nc2c1C(C)(C)CN2c1ccc(F)cc1 [Example 13, 7-(4-Fluorophenyl)-N4,5,5-trimethyl-N2-(6-(3-methyl-1H-1,2,4-triazol-1-yl)pyridin-3-yl)-6,7-dihydro-5H-pyrrolo[2,3-d]pyrimidine-2,4-diamine]"
5,16,"CNc1nc(Nc2ccc(-n3cnc(C)n3)c(F)c2)nc2c1C(C)(C)CN2c1ccc(F)cc1 [Example 3, N2-(3-Fluoro-4-(3-methyl-1H-1,2,4-triazol-1-yl)phenyl)-7-(4-fluorophenyl)-N4,5,5-trimethyl-6,7-dihydro-5H-pyrrolo[2,3-d]pyrimidine-2,4-diamine]"
6,14,"CNc1nc(Nc2cnc(-n3cnc(C)c3)c(OC)c2)nc2c1C(C)(C)CN2C1CC(F)(F)C1 [Example 18, 7-(3,3-Difluorocyclobutyl)-N2-(5-methoxy-6-(4-methyl-1H-imidazol-1-yl)pyridin-3-yl)-N4,5,5-trimethyl-6,7-dihydro-5H-pyrrolo[2,3-d]pyrimidine-2,4-diamine]"
7,10,"CNc1nc(Nc2cnc(-n3cnc(Cl)c3)c(OC)c2)nc2c1C(C)(C)CN2c1ccc(F)c(F)c1 [Example 14, N2-(6-(4-Chloro-1H-imidazol-1-yl)-5-methoxypyridin-3-yl)-7-(3,4-difluorophenyl)-N4,5,5-trimethyl-6,7-dihydro-5H-pyrrolo[2,3-d]pyrimidine-2,4-diamine]"
8,8,"CNc1nc(Nc2ccc(-n3cnc(C)n3)c(OC(F)F)c2)nc2c1C(C)(C)CN2c1ccc(F)cc1 [Example 2, N2-(3-(Difluoromethoxy)-4-(3-methyl-1H-1,2,4-triazol-1-yl)phenyl)-7-(4-fluorophenyl)-N4,5,5-trimethyl-6,7-dihydro-5H-pyrrolo[2,3-d]pyrimidine-2,4-diamine]"
9,8,"CNc1nc(Nc2cnc(-n3cnc(C)c3)c(OC)c2)nc2c1C(C)(C)CN2c1ccc(F)c(F)c1 [Example 15, 7-(3,4-Difluorophenyl)-N2-(5-methoxy-6-(4-methyl-1H-imidazol-1-yl)pyridin-3-yl)-N4,5,5-trimethyl-6,7-dihydro-5H-pyrrolo[2,3-d]pyrimidine-2,4-diamine]"
10,8,"CNc1nc(Nc2cnc(-n3cnc(Cl)c3)c(OC)c2)nc2c1C(C)(C)CN2c1ccc(F)cc1F [Example 23, N2-(6-(4-Chloro-1H-imidazol-1-yl)-5-methoxypyridin-3-yl)-7-(2,4-difluorophenyl)-N4,5,5-trimethyl-6,7-dihydro-5H-pyrrolo[2,3-d]pyrimidine-2,4-diamine]"
11,7,"CNc1nc(Nc2ccc(-n3cnc(C)c3)c(F)c2)nc2c1[C@@H](C)CN2c1ccc(F)cc1 (single isomer, unassigned) [Example 46q, (R)— or (S)—N2-(3-Fluoro-4-(4-methyl-1H-imidazol-1-yl)phenyl)-7-(4-fluorophenyl)-N4,5-dimethyl-6,7-dihydro-5H-pyrrolo[2,3-d]pyrimidine-2,4-diamine]"
12,7,"CNc1nc(Nc2ccc(-n3cnc(Cl)c3)c(OC)c2)nc2c1C(C)(C)CN2c1ccc(F)cc1 [Example 4, N2-(4-(4-Chloro-1H-imidazol-1-yl)-3-methoxyphenyl)-7-(4-fluorophenyl)-N4,5,5-trimethyl-6,7-dihydro-5H-pyrrolo[2,3-d]pyrimidine-2,4-diamine]"
13,5,"CNc1nc(Nc2ccc(-n3cnc(C)c3)c(F)c2)nc2c1[C@H](C)CN2c1ccc(F)cc1 (single isomer, unassigned) [Example 46p, (S)- or (R)—N2-(3-Fluoro-4-(4-methyl-1H-imidazol-1-yl)phenyl)-7-(4-fluorophenyl)-N4,5-dimethyl-6,7-dihydro-5H-pyrrolo[2,3-d]pyrimidine-2,4-diamine]"
